{
  "source": "paper PMC9412875",
  "about": "“^64Cu-DOTHA2-PSMA, a Novel PSMA PET Radiotracer for Prostate Cancer with a Long Imaging Time Window” (Pharmaceuticals, 2022)",
  "key": {"LNCaP tumor [1]": {"tested_on": "LNCaP tumor", "test": "PET imaging of LNCaP tumor-bearing mice", "assay_type": "in vivo, NRG mice", "procedure": "All the experiments were conducted according to a protocol approved by the Animal Ethics Committee of the Université de Sherbrooke and were in accordance with the guidelines of the Canadian Council on Animal Care. All animal manipulations that could cause pain, stress, or that required immobilization were performed under isoflurane anesthesia (2% in 2 L/min oxygen) with a heating pad or bed. When protocols required animal death (e.g., biodistribution) or ethical limits (e.g., tumor size) were reached, euthanasia was performed by CO2 inhalation under isoflurane anesthesia. […] For PET imaging, NRG mice were used (The Jack Laboratory, 7–10 weeks old, and 19–26 g at time of experiment). A total of 200 µL of a 1:1 Matrigel/PBS mixture containing […] LNCaP cells was injected subcutaneously on each shoulder of NRG mice. Experiments were initiated 2 to 4 weeks after inoculation when tumors reached a diameter between 5 and 10 mm.\nDynamic (0–1 h p.i.) and static (4 h, 20 min long and 24 h p.i., 1h long) PET assays were performed in combination with 5 min CT in NRG mice injected with 8 MBq of ^64Cu-DOTHA2-PSMA in 0.3 mL of saline through the tail vein (LabPET 8/-Triumph; Gamma Medica, Northridge, CA, USA). Blocking was achieved by the co-injection of 20 nmol of ^natCu-DOTHA2-PSMA (n = 3 per group). We selected this blocking agent because its pharmacokinetics are similar to ^64Cu-DOTHA2-PSMA. PET images were reconstructed using the three-dimensional maximum likelihood […] method (MLEM-3D) algorithm with 20 iterations and a 60 mm field-of-view (Gamma Medica). The analyses were conducted using AMIDE software 1.0.4. Quantitative image data were reported as %IA per volume (centimeter cube, cc)."}, "LNCaP tumor [2]": {"tested_on": "LNCaP tumor", "test": "Tumor-bearing mice biodistribution after PET", "assay_type": "in vivo, NRG mice", "conditions": "24 h p.i.", "procedure": "Balb/c mice (n = 30) were injected with a bolus of ^64Cu-DOTHA2-PSMA by the tail vein (in 0.3 mL of saline: 3 MBq for 1 h, 2 h, and 4 h p.i., 7.5 MBq for 24 h p.i. and 21 MBq for 48 h p.i.). Injected activity had to be increased for later time points to ensure reliable detection and reliability in organs with a low uptake, e.g., the brain. At all timepoints, blood was collected using a heparin-coated syringe by femoral vein puncture and mice were then euthanized and dissected. Harvested tissues were rinsed, blotted dry, and then weighted and counted in gamma counter. The results are reported as the %IA per gram of tissue. The biodistribution results were compared with the ^68Ga-PSMA-617 results obtained by our team at 1 h and 2 h p.i.\nPET imaging of NRG mice and supplemental tumor-bearing mice were biodistributed 24 h p.i. as described for balb/c mice."}, "[3]": {"conditions": "Blocked (n=4), co-injection of natCu-DOTHA2-PSMA"}},
  "data": [
    {"smiles": "CN([O-])C(=O)CN1CCN(CC(=O)NCC2CCC(C(=O)NC(Cc3ccc4ccccc4c3)C(=O)NCCCCC(NC(=O)NC(CCC(=O)O)C(=O)O)C(=O)O)CC2)CCN(CC(=O)N(C)[O-])CCN(CC(=O)N(C)O)CC1.[64Cu+2]", "note": "(centres unmarked) [^64Cu-DOTHA2-PSMA]", "values": [
      {"measurement": "tumor uptake (PET)", "setting": "LNCaP tumor [1]; 1 h p.i., co-injection of blocking agent (20 nmol natCu-DOTHA2-PSMA)", "value": "4.78 ± 0.96", "unit": "% IA/cc"},
      {"measurement": "liver uptake (PET, peak)", "setting": "LNCaP tumor [1]; 4 h p.i.", "value": "26.8 ± 5.3", "unit": "% IA/cc"},
      {"measurement": "tumor uptake (PET)", "setting": "LNCaP tumor [1]; 4 h p.i., co-injection of blocking agent (20 nmol natCu-DOTHA2-PSMA)", "value": "7.46 ± 1.07", "unit": "% IA/cc"},
      {"measurement": "tumor uptake (PET)", "setting": "LNCaP tumor [1]; 24 h p.i., co-injection of blocking agent (20 nmol natCu-DOTHA2-PSMA)", "value": "8.62 ± 0.74", "unit": "% IA/cc"},
      {"measurement": "tumor uptake (PET)", "setting": "LNCaP tumor [1]; LNCaP tumor, NRG mice, 1 h p.i., non-blocked", "value": "14.0 ± 5.0", "unit": "% IA/cc"},
      {"measurement": "tumor uptake (PET)", "setting": "LNCaP tumor [1]; LNCaP tumor, NRG mice, 4 h p.i., non-blocked", "value": "23.8 ± 11.5", "unit": "% IA/cc"},
      {"measurement": "tumor uptake (PET)", "setting": "LNCaP tumor [1]; LNCaP tumor, NRG mice, 24 h p.i., non-blocked", "value": "18.5 ± 6.6", "unit": "% IA/cc"},
      {"measurement": "time of highest tumoral uptake", "setting": "LNCaP tumor [1]; PET, LNCaP tumor", "value": 4, "unit": "h p.i."},
      {"measurement": "time of peak kidney uptake, calyxes", "setting": "LNCaP tumor [1]; dynamic PET", "value": 10, "unit": "min p.i."},
      {"measurement": "time of peak kidney uptake, cortex", "setting": "LNCaP tumor [1]; dynamic PET", "value": 5, "unit": "min p.i."},
      {"measurement": "tumor-to-kidney ratios", "setting": "LNCaP tumor [1]; from 1 h p.i.", "value": "greater than 1"},
      {"measurement": "time of peak of urinary clearance (kidney calyxes and cortex signals)", "setting": "LNCaP tumor [1]; time-activity curves", "value": "≤ 10", "unit": "min"},
      {"measurement": "Adrenals uptake", "setting": "LNCaP tumor [2]; [3]", "value": 9.02, "unit": "%IA/g"},
      {"measurement": "Blood uptake", "setting": "LNCaP tumor [2]; [3]", "value": 1.91, "unit": "%IA/g"},
      {"measurement": "Bone uptake", "setting": "LNCaP tumor [2]; [3]", "value": 0.91, "unit": "%IA/g"},
      {"measurement": "Brain uptake", "setting": "LNCaP tumor [2]; [3]", "value": 0.38, "unit": "%IA/g"},
      {"measurement": "Fat uptake", "setting": "LNCaP tumor [2]; [3]", "value": 0.26, "unit": "%IA/g"},
      {"measurement": "Heart uptake", "setting": "LNCaP tumor [2]; [3]", "value": 3.00, "unit": "%IA/g"},
      {"measurement": "Intestin uptake", "setting": "LNCaP tumor [2]; [3]", "value": 8.53, "unit": "%IA/g"},
      {"measurement": "Kidneys uptake", "setting": "LNCaP tumor [2]; [3]", "value": 6.86, "unit": "%IA/g"},
      {"measurement": "LNCaP tumor uptake", "setting": "LNCaP tumor [2]; [3]", "value": 7.44, "unit": "%IA/g"},
      {"measurement": "Lungs uptake", "setting": "LNCaP tumor [2]; [3]", "value": 5.99, "unit": "%IA/g"},
      {"measurement": "Muscles uptake", "setting": "LNCaP tumor [2]; [3]", "value": 0.47, "unit": "%IA/g"},
      {"measurement": "Pancreas uptake", "setting": "LNCaP tumor [2]; [3]", "value": 2.09, "unit": "%IA/g"},
      {"measurement": "Plasma uptake", "setting": "LNCaP tumor [2]; [3]", "value": 2.54, "unit": "%IA/g"},
      {"measurement": "Salivary gl. uptake", "setting": "LNCaP tumor [2]; [3]", "value": 1.84, "unit": "%IA/g"},
      {"measurement": "Seminal gl. uptake", "setting": "LNCaP tumor [2]; [3]", "value": 0.59, "unit": "%IA/g"},
      {"measurement": "Skin uptake", "setting": "LNCaP tumor [2]; [3]", "value": 0.50, "unit": "%IA/g"},
      {"measurement": "Spleen uptake", "setting": "LNCaP tumor [2]; [3]", "value": 6.99, "unit": "%IA/g"},
      {"measurement": "Stomach uptake", "setting": "LNCaP tumor [2]; [3]", "value": 5.55, "unit": "%IA/g"},
      {"measurement": "Tail uptake", "setting": "LNCaP tumor [2]; [3]", "value": 1.36, "unit": "%IA/g"},
      {"measurement": "Testis uptake", "setting": "LNCaP tumor [2]; [3]", "value": 1.03, "unit": "%IA/g"},
      {"measurement": "Thyroid uptake", "setting": "LNCaP tumor [2]; [3]", "value": 1.33, "unit": "%IA/g"},
      {"measurement": "liver uptake", "setting": "LNCaP tumor [2]; [3]", "value": 15.15, "unit": "%IA/g"},
      {"measurement": "Adrenals uptake", "setting": "LNCaP tumor [2]; Non-blocked (n=11)", "value": 4.70, "unit": "%IA/g"},
      {"measurement": "Blood uptake", "setting": "LNCaP tumor [2]; Non-blocked (n=11)", "value": 3.46, "unit": "%IA/g"},
      {"measurement": "Bone uptake", "setting": "LNCaP tumor [2]; Non-blocked (n=11)", "value": 2.38, "unit": "%IA/g"},
      {"measurement": "Brain uptake", "setting": "LNCaP tumor [2]; Non-blocked (n=11)", "value": 0.75, "unit": "%IA/g"},
      {"measurement": "Fat uptake", "setting": "LNCaP tumor [2]; Non-blocked (n=11)", "value": 0.63, "unit": "%IA/g"},
      {"measurement": "Heart uptake", "setting": "LNCaP tumor [2]; Non-blocked (n=11)", "value": 5.20, "unit": "%IA/g"},
      {"measurement": "Intestin uptake", "setting": "LNCaP tumor [2]; Non-blocked (n=11)", "value": 15.69, "unit": "%IA/g"},
      {"measurement": "Kidneys uptake", "setting": "LNCaP tumor [2]; Non-blocked (n=11)", "value": 13.24, "unit": "%IA/g"},
      {"measurement": "LNCaP tumor uptake", "setting": "LNCaP tumor [2]; Non-blocked (n=11)", "value": 17.33, "unit": "%IA/g"},
      {"measurement": "Lungs uptake", "setting": "LNCaP tumor [2]; Non-blocked (n=11)", "value": 14.30, "unit": "%IA/g"},
      {"measurement": "Muscles uptake", "setting": "LNCaP tumor [2]; Non-blocked (n=11)", "value": 1.10, "unit": "%IA/g"},
      {"measurement": "Pancreas uptake", "setting": "LNCaP tumor [2]; Non-blocked (n=11)", "value": 2.80, "unit": "%IA/g"},
      {"measurement": "Plasma uptake", "setting": "LNCaP tumor [2]; Non-blocked (n=11)", "value": 4.52, "unit": "%IA/g"},
      {"measurement": "Salivary gl. uptake", "setting": "LNCaP tumor [2]; Non-blocked (n=11)", "value": 4.18, "unit": "%IA/g"},
      {"measurement": "Seminal gl. uptake", "setting": "LNCaP tumor [2]; Non-blocked (n=11)", "value": 1.13, "unit": "%IA/g"},
      {"measurement": "Skin uptake", "setting": "LNCaP tumor [2]; Non-blocked (n=11)", "value": 1.07, "unit": "%IA/g"},
      {"measurement": "Spleen uptake", "setting": "LNCaP tumor [2]; Non-blocked (n=11)", "value": 10.10, "unit": "%IA/g"},
      {"measurement": "Stomach uptake", "setting": "LNCaP tumor [2]; Non-blocked (n=11)", "value": 9.17, "unit": "%IA/g"},
      {"measurement": "Tail uptake", "setting": "LNCaP tumor [2]; Non-blocked (n=11)", "value": 2.37, "unit": "%IA/g"},
      {"measurement": "Testis uptake", "setting": "LNCaP tumor [2]; Non-blocked (n=11)", "value": 1.96, "unit": "%IA/g"},
      {"measurement": "Thyroid uptake", "setting": "LNCaP tumor [2]; Non-blocked (n=11)", "value": 2.57, "unit": "%IA/g"},
      {"measurement": "liver uptake", "setting": "LNCaP tumor [2]; Non-blocked (n=11)", "value": 28.54, "unit": "%IA/g"}
    ]}
  ]
}
